Key:
[1] = system: thermostable β-xylosidase OJ1M-273-1 (GH3 family), SEQ ID NO: 2, from hot spring soil metagenome OJ1, expressed in E. coli, purified; assay: Kinetics of PNP substrate hydrolysis by OJ1M-273-1 β-xylosidase; format: biochemical; details: 105° C., pH 5 acetate buffer; for Vmax (maximum initial rate of hydrolysis) / Km: 10 min, enzyme diluted to 0.01 mg/mL, Michaelis-Menten fit; for Km: read-out: Km (Michaelis constant); for Kcat/Km (catalytic efficiency): calculated from fitted Vmax and Km
Experimental: The gene recombinant E. coli homogeneous supernatant was loaded onto an ion exchange column HiTrap Q HP (manufactured by GE Healthcare, Inc.) equilibrated with a 50 mM Tris-HCl buffer (pH 8.0), and a medium-high pressure liquid chromatography system AKTA design (manufactured by GE Healthcare, Inc.) was used to fractionate proteins with a concentration gradient of 0 to 50% in a 50 mM Tris-HCl buffer (pH 8.0) containing 1 M of NaCl. […] The fractions with β-xylosidase activity following the buffer exchange were loaded onto a hydrophobic interaction separation column HiTrap Phenyl HP (manufactured by GE Healthcare, Inc.) equilibrated with the same buffer solution, and the proteins were fractionated with a concentration gradient of 0 to 100% in a 50 mM Tris-HCl buffer (pH 8.0). […] The concentrated sample was loaded onto a gel filtration column Hiload 26/60 superdex 200 pg (manufactured by GE Healthcare, Inc.) equilibrated with a 50 mM Tris-HCl buffer (pH 8.0) containing 150 mM of NaCl, and was fractionated by passing a volume of the same buffer equivalent to 1 to 1.5 times the column volume through the column at a flow rate of 2 to 3 mL/min.
PNPX was used as the substrate for measuring the β-xylosidase activity. A solution prepared by dissolving PNPX (manufactured by Sigma-Aldrich Co. LLC.) in water to obtain a prescribed final concentration was used as the substrate solution. The PNPX substrate solutions used in the experiments described below all used aqueous solutions of PNPX prepared by the above method. In the measurements, a solution prepared by diluting the purified enzyme obtained in section <6> above with a 0.05 M Tris-HCl buffer (pH 8.0) to obtain a concentration of 0.1 to 0.01 mg/mL was used.
The reaction solution was composed of 6 μL of the diluted purified enzyme, 294 μL of purified water, 150 μL of a 200 mM acetate buffer (pH 5), and 150 μL of a 20 mM PNPX aqueous solution.
The reaction was performed at 60° C. to 115° C. for 10 minutes using a ReactiTherm (manufactured by Thermo Fisher Scientific Inc.). A glass vial with a volume of 1.5 mL was used as the reaction vessel, and the inside of the vial was pre-coated with a 1.5% by mass aqueous solution of BSA in order to suppress enzyme protein adsorption. In all measurements, a mixed solution prepared by replacing the gene recombinant E. coli homogenous supernatant or the purified enzyme with a 50 mM Tris-HCl buffer (pH 8.0) and then reacting the solution under the same conditions was used as a control. Further, the mixed solution containing the enzyme (the gene recombinant E. coli homogenous supernatant or the purified enzyme), the purified water and the buffer was held at the reaction temperature for five minutes (pre-incubation), the substrate solution was then added, and the reaction was performed. In each case, following completion of the 10-minute reaction, the reaction was halted by adding a 0.2 M Na2CO3 solution to the reaction solution in a volume equal to that of the mixed solution, and the resulting mixture was then centrifuged for 5 minutes to obtain a supernatant. The amount of p-nitrophenol in the supernatant was determined by measuring the absorbance at 420 nm using a spectrophotometer, calculating the amount of p-nitrophenol in the supernatant using a calibration curve prepared with p-nitrophenol, and then determining the amount of p-nitrophenol produced by the enzymatic hydrolysis on the basis of the difference from the control. The enzymatic activity for producing 1 μmol of p-nitrophenol per minute was defined as 1 U, and the value obtained by dividing this activity by the amount of protein was defined as the specific activity (U/mg). Each measurement was performed for three independent experiments, and a mean value and a standard error were determined.
The maximum initial rate (Vmax) of hydrolysis, the Michaelis constant (Km) and the catalytic efficiency (Kcat/Km) were investigated for PNP substrate hydrolysis by OJ1M-273-1. […]

[2] = system: thermostable 1-xylosidase having an optimum temperature of 95° C. (Non-Patent Document 7, Shi et al., 2013); details: PNPX as substrate; cited from earlier work

O=[N+]([O-])c1ccc(O[C@@H]2O[C@@H](CO)[C@H](O)[C@H]2O)cc1 [PNPAF, p-nitrophenyl-α-L-arabinofuranoside]
Vmax (maximum initial rate of hydrolysis) [1]: 914.5 U/mg
Km [1]: 13.7 mM
Kcat/Km (catalytic efficiency) [1]: 87700 M⁻¹ s⁻¹

O=[N+]([O-])c1ccc(O[C@@H]2OC[C@H](O)[C@H](O)[C@H]2O)cc1 [PNPAP, p-nitrophenyl-α-L-arabinopyranoside]
Vmax (maximum initial rate of hydrolysis) [1]: 838.5 U/mg
Km [1]: 20.6 mM
Kcat/Km (catalytic efficiency) [1]: 53600 M⁻¹ s⁻¹

O=[N+]([O-])c1ccc(O[C@@H]2OC[C@@H](O)[C@H](O)[C@H]2O)cc1 [PNPX, p-nitrophenyl-β-D-xylopyranoside]
Vmax (maximum initial rate of hydrolysis) [1]: 86.0 U/mg
Km [1]: 0.44 mM
Kcat/Km (catalytic efficiency) [1]: 259800 M⁻¹ s⁻¹
catalytic efficiency Kcat/Km [2]: 1.1734e+06 M⁻¹ s⁻¹

From patent US9523108B2, “Thermostable β-xylosidase” (HONDA MOTOR CO., LTD., priority 2014, dated 2016)
